Where a SMILES comes first, the peptide text is derived from it. [ ]: non-standard residue; d: D form. Trp(6-Cl) = N[C@@H](Cc1c[nH]c2cc(Cl)ccc12)C(=O)O; Pmp = N[C@@H](Cc1ccc(CP(=O)(O)O)cc1)C(=O)O; Ac3c = NC1(C(=O)O)CC1; Aib = CC(C)(N)C(=O)O
Key:
[1] = target: T1, E3 ubiquitin-protein ligase Mdm2 (Homo sapiens, UniProt Q00987); assay: Antagonist activity at human MDM2
[2] = target: Tumour suppressor p53/oncoprotein Mdm2 (Homo sapiens, UniProt P04637+Q00987); assay: Binding affinity to human MDM2/p53; type: protein assay
Sequence of Tumour suppressor p53/oncoprotein Mdm2 (P04637 whole entry): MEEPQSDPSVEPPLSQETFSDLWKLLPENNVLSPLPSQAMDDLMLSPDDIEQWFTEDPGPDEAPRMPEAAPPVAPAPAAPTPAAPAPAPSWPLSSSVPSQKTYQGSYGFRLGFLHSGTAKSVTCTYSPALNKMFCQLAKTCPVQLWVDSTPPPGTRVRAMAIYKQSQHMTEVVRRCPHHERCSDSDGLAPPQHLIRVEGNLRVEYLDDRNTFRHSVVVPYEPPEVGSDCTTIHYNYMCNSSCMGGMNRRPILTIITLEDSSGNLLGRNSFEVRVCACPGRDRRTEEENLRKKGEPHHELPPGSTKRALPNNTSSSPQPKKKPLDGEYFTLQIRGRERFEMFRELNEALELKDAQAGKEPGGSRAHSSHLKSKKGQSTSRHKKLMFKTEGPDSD
Sequence of Tumour suppressor p53/oncoprotein Mdm2 (Q00987 whole entry): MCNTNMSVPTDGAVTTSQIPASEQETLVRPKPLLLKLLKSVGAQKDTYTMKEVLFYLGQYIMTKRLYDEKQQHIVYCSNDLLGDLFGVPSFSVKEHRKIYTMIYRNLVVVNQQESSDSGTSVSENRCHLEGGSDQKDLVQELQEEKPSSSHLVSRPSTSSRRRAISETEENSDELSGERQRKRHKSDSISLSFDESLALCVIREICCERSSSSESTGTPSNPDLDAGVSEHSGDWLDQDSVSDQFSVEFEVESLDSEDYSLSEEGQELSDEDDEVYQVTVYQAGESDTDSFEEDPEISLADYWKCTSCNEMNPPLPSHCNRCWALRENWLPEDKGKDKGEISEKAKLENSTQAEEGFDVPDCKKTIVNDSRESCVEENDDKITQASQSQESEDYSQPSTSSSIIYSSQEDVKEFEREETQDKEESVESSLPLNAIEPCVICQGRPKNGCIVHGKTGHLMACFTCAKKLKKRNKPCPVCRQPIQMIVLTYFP

[3] = target: T1, E3 ubiquitin-protein ligase Mdm2; assay: Antagonist activity at human GST-tagged MDM2 assessed as inhibition of binding to full length p53

T1 sequence (Q00987 whole entry): as above

Structure (SMILES)	IC50 [1]	further results
CSCC[C@H](NC(=O)[C@@H](N)Cc1ccccc1)C(=O)N[C@@H](CC(=O)O)C(=O)N[C@@H](Cc1ccc(O)cc1)C(=O)N[C@@H](Cc1c[nH]c2ccccc12)C(=O)N[C@@H](CCC(=O)O)C(=O)NCC(=O)N[C@@H](CC(C)C)C(N)=O (H-FMDYWEGL-NH2)	8.9 µM	
CCOc1cc(C(C)(C)C)ccc1C1=N[C@@H](c2ccc(Cl)cc2)[C@@H](c2ccc(Cl)cc2)N1C(=O)N1CCN(CCCS(C)(=O)=O)CC1		Kd [2]: 10.7 nM
CSCC[C@H](NC(=O)[C@H](Cc1ccccc1)NC(C)=O)C(=O)NC(C)(C)C(=O)N[C@@H](Cc1ccc(CP(=O)(O)O)cc1)C(=O)N[C@@H](Cc1c[nH]c2cc(Cl)ccc12)C(=O)N[C@@H](CCC(=O)O)C(=O)NC1(C(=O)N[C@@H](CC(C)C)C(N)=O)CC1 (Ac-FM[Aib][Pmp][Trp(6-Cl)]E[Ac3c]L-NH2)		IC50 [3]: 5 nM
CSCC[C@H](NC(=O)[C@H](Cc1ccccc1)NC(=O)[C@H](CCCN=C(N)N)NC(=O)[C@@H]1CCCN1C(=O)[C@H](CCSC)NC(C)=O)C(=O)N[C@@H](CC(=O)O)C(=O)N[C@@H](Cc1ccc(O)cc1)C(=O)N[C@@H](Cc1c[nH]c2ccccc12)C(=O)N[C@@H](CCC(=O)O)C(=O)NCC(=O)N[C@@H](CC(C)C)C(=O)N[C@@H](CC(N)=O)C(N)=O (Ac-MPRFMDYWEGLN-NH2)	0.313 µM	
